Laboratory results taken from patent US11357743B2, “Ketamine and propofol admixture” (Mayo Foundation for Medical Education and Research, priority 2017, dated 2022).

Assays:
[1] = Nursing and patient assessment surveys after induction of general anesthesia with propofol or ketofol (randomized, double-blinded controlled trial)
Source text: 85 patients of ASA Class 1-2 scheduled for surgical procedures that involved general anesthesia were assigned to one of two arms, one involving induction with propofol and the other involving induction with “ketofol” (a ketamine/propofol combination) in a randomized, double-blinded controlled trial. Patients were placed on standard ASA monitors including a BIS monitor and a noninvasive cardiac output monitor (NICOM) prior to induction of general anesthesia.
One minute before induction, baseline hemodynamics were recorded with standard ASA monitors as well as with the NICOM. Providers were given one 20 ml syringe and one 10 ml syringe for rescue if needed. As part of the induction, fentanyl (1-2 mcg/kg) and any relaxant excluding succinylcholine and pancuronium was given. The 20 ml syringe in both groups looked identical, appeared to be propofol but depending on the group they were randomized to, it represented either 2 mg/kg of propofol (propofol group) or 0.75 mg/kg of ketamine and 1.5 mg/kg of propofol (“ketofol” group). The 10 ml rescue syringe, if used, represented 1 mg/kg of propofol (propofol group) or 0.25 mg/kg of ketamine and 0.5 mg/kg of propofol (“ketofol” group). Hemodynamics were recorded every minute for a total of 30 minutes post-induction. During this time, anesthesia was maintained with any volatile agent excluding nitrous oxide. […] Patients were given survey questions that centered on emergence, discharge times, pain control, and nausea/vomiting. In addition, nurses were also asked to fill out a survey which dealt with similar questions.

[2] = Ketofol vs etomidate for emergent endotracheal intubation in critically ill patients (randomized clinical trial); assay type: in vivo, human; conditions: share of group
[3] = Likert scaled responses from 0 (strongly disagree) to 7 (strongly agree)
[4] = Likert scaled responses from 0 (very poorly) to 7 (perfectly)

Structure (SMILES)	Patient Assessment: Emergence (woke up well), Mean [1, 3]	Patient Assessment: No PONV, Mean [1, 3]	Patient Assessment: No Pain, Mean [1, 3]	Nursing Assessment: Discharge (from unit), Mean [1, 4]	Nursing Assessment: Emergence (wake up), Mean [1, 4]	Nursing Assessment: Protection from PONV, Mean ([1]; Likert scaled responses from 0 (very poorly) to 7 (perfectly), PONV = post-operative nausea/vomiting)	Serious adverse events reported [2]
CC(C)c1cccc(C(C)C)c1O [Propofol, 2,6-diisopropylphenol]	5.5	5.5	3.8	5.1	5.4	5.5	
CCOC(=O)c1cncn1[C@H](C)c1ccccc1 [etomidate]							5%
